Laboratory results reported in the NIST ThermoML archive (doi:10.1016/j.jct.2016.06.012).

Assay: xn = mol fraction of the nth substance listed
Conditions: 100 kPa, Liquid; for viscosity: Capillary tube (Ostwald / Ubbelohde) method; for mass density: Vibrating tube method

CCC[n+]1ccn(C)c1C.O=S(=O)([N-]S(=O)(=O)C(F)(F)F)C(F)(F)F + O=C1CCCO1
Conditions | mass density [kg/m3] | viscosity [mPa·s]
293.15 K, x1 = 0.0505 | 1184.15 | 2.47
293.15 K, x1 = 0.1001 | 1226.3 | 3.4
293.15 K, x1 = 0.1492 | 1259.98 | 4.72
293.15 K, x1 = 0.1998 | 1288.55 | 6.2
293.15 K, x1 = 0.3008 | 1332.65 | 9.95
293.15 K, x1 = 0.4031 | 1365.48 | 15.94
293.15 K, x1 = 0.5048 | 1390.46 | 25.66
293.15 K, x1 = 0.6031 | 1409.62 | 38.98
293.15 K, x1 = 0.6973 | 1424.67 | 54.53
293.15 K, x1 = 0.7994 | 1438.25 | 74.49
293.15 K, x1 = 0.8711 | 1446.46 | 89.77
293.15 K, x1 = 1 | 1459.14 | 121.7
298.15 K, x1 = 0.0505 | 1179.18 | 2.26
298.15 K, x1 = 0.1001 | 1221.4 | 3.07
298.15 K, x1 = 0.1492 | 1255.08 | 4.21
298.15 K, x1 = 0.1998 | 1283.68 | 5.44
298.15 K, x1 = 0.3008 | 1327.83 | 8.61
298.15 K, x1 = 0.4031 | 1360.68 | 13.23
298.15 K, x1 = 0.5048 | 1385.67 | 20.56
298.15 K, x1 = 0.6031 | 1404.85 | 30.47
298.15 K, x1 = 0.6973 | 1419.93 | 42.29
298.15 K, x1 = 0.7994 | 1433.53 | 57.35
298.15 K, x1 = 0.8711 | 1441.74 | 69.78
298.15 K, x1 = 1 | 1454.44 | 92.8
303.15 K, x1 = 0.0505 | 1174.28 | 2.1
303.15 K, x1 = 0.1001 | 1216.49 | 2.82
303.15 K, x1 = 0.1492 | 1250.18 | 3.78
303.15 K, x1 = 0.1998 | 1278.79 | 4.88
303.15 K, x1 = 0.3008 | 1322.96 | 7.6
303.15 K, x1 = 0.4031 | 1355.84 | 11.41
303.15 K, x1 = 0.5048 | 1380.86 | 17.18
303.15 K, x1 = 0.6031 | 1400.07 | 24.6
303.15 K, x1 = 0.6973 | 1415.16 | 33.28
303.15 K, x1 = 0.7994 | 1428.78 | 44.5
303.15 K, x1 = 0.8711 | 1437 | 54.92
303.15 K, x1 = 1 | 1449.72 | 72.1
308.15 K, x1 = 0.0505 | 1169.38 | 1.96
308.15 K, x1 = 0.1001 | 1211.58 | 2.56
308.15 K, x1 = 0.1492 | 1245.28 | 3.45
308.15 K, x1 = 0.1998 | 1273.9 | 4.42
308.15 K, x1 = 0.3008 | 1318.1 | 6.83
308.15 K, x1 = 0.4031 | 1351.01 | 9.99
308.15 K, x1 = 0.5048 | 1376.06 | 14.57
308.15 K, x1 = 0.6031 | 1395.28 | 20.33
308.15 K, x1 = 0.6973 | 1410.4 | 27.25
308.15 K, x1 = 0.7994 | 1424.03 | 35.98
308.15 K, x1 = 0.8711 | 1432.26 | 44.23
308.15 K, x1 = 1 | 1445 | 57.76
313.15 K, x1 = 0.0505 | 1164.47 | 1.82
313.15 K, x1 = 0.1001 | 1206.67 | 2.36
313.15 K, x1 = 0.1492 | 1240.38 | 3.18
313.15 K, x1 = 0.1998 | 1269.01 | 4.04
313.15 K, x1 = 0.3008 | 1313.24 | 6.09
313.15 K, x1 = 0.4031 | 1346.18 | 8.71
313.15 K, x1 = 0.5048 | 1371.25 | 12.55
313.15 K, x1 = 0.6031 | 1390.5 | 17.39
313.15 K, x1 = 0.6973 | 1405.64 | 22.52
313.15 K, x1 = 0.7994 | 1419.29 | 30.01
313.15 K, x1 = 0.8711 | 1427.53 | 36.05
313.15 K, x1 = 1 | 1440.28 | 46.53
318.15 K, x1 = 0.0505 | 1159.57 | 1.68
318.15 K, x1 = 0.1001 | 1201.76 | 2.2
318.15 K, x1 = 0.1492 | 1235.48 | 2.97
318.15 K, x1 = 0.1998 | 1264.13 | 3.73
318.15 K, x1 = 0.3008 | 1308.38 | 5.5
318.15 K, x1 = 0.4031 | 1341.35 | 7.79
318.15 K, x1 = 0.5048 | 1366.46 | 10.94
318.15 K, x1 = 0.6031 | 1385.73 | 15.01
318.15 K, x1 = 0.6973 | 1400.88 | 19.07
318.15 K, x1 = 0.7994 | 1414.55 | 24.95
318.15 K, x1 = 0.8711 | 1422.81 | 29.91
318.15 K, x1 = 1 | 1435.57 | 38.4
323.15 K, x1 = 0.0505 | 1154.66 | 1.58
323.15 K, x1 = 0.1001 | 1196.85 | 2.04
323.15 K, x1 = 0.1492 | 1230.58 | 2.73
323.15 K, x1 = 0.1998 | 1259.24 | 3.38
323.15 K, x1 = 0.3008 | 1303.52 | 4.93
323.15 K, x1 = 0.4031 | 1336.53 | 6.9
323.15 K, x1 = 0.5048 | 1361.66 | 9.56
323.15 K, x1 = 0.6031 | 1380.96 | 12.76
323.15 K, x1 = 0.6973 | 1396.13 | 16.4
323.15 K, x1 = 0.7994 | 1409.83 | 20.66
323.15 K, x1 = 0.8711 | 1418.1 | 24.69
323.15 K, x1 = 1 | 1430.87 | 31.89
